Test system: HCT116 colorectal cancer cells
Assay: Cisplatin sensitization assay (96 h cell viability MTS);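 further: compound concentration needed to lower the Cisplatin-alone IC50 by a set fold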
Assay type: cell-based
Conditions: 96 h MTS, compound plus Cisplatin
Method in brief: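 Full-matrix combination: compound × cisplatin, 2-fold dilutions from 10 μM top final, co-added; 96 h, 37° C, 5% CO2; MTS read-out after 1 h.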

| Structure (SMILES) | Cisplatin Sensitization Assay |
| --- | --- |
| Cc1nncn1-c1ccncc1NC(=O)c1c(N)nn2cc(F)cnc12 [I-N-263, 2-amino-6-fluoro-N-(4-(3-methyl-4H-1,2,4-triazol-4-yl)pyridin-3-yl)pyrazolo[1,5-a]pyrimidine-3-carboxamide] | + (Compounds with a Cisplatin sensitization value >0.2 μM but <5 μM are marked with “+.”) |
| Nc1nn2cc(F)cnc2c1C(=O)Nc1cnccc1N1CCCCCC1 [I-N-264, 2-amino-N-(4-(azepan-1-yl)pyridin-3-yl)-6-fluoropyrazolo[1,5-a]pyrimidine-3-carboxamide] | + (Compounds with a Cisplatin sensitization value >0.2 μM but <5 μM are marked with “+.”) |
| Cc1nnc(C2CCN(c3ccncc3NC(=O)c3c(N)nn4cc(F)cnc34)CC2)o1 [I-N-265, 2-amino-6-fluoro-N-(4-(4-(5-methyl-1,3,4-oxadiazol-2-yl)piperidin-1-yl)pyridin-3-yl)pyrazolo[1,5-a]pyrimidine-3-carboxamide] | ++ (Compounds with a Cisplatin sensitization value >0.02 μM but <0.2 μM are marked with “++.”) |
| COC1CCN(c2ccncc2NC(=O)c2c(N)nn3cc(F)cnc23)CC1 [I-N-266, 2-amino-6-fluoro-N-(4-(4-methoxypiperidin-1-yl)pyridin-3-yl)pyrazolo[1,5-a]pyrimidine-3-carboxamide] | +++ (Compounds with a Cisplatin sensitization value of <0.02 μM are marked with “+++.”) |
| CN(C)CC1CCN(c2ccncc2NC(=O)c2c(N)nn3cc(F)cnc23)CC1 [I-N-267, 2-amino-N-(4-(4-((dimethylamino)methyl)piperidin-1-yl)pyridin-3-yl)-6-fluoropyrazolo[1,5-a]pyrimidine-3-carboxamide] | +++ (Compounds with a Cisplatin sensitization value of <0.02 μM are marked with “+++.”) |
| Nc1nn2cc(F)cnc2c1C(=O)Nc1cnccc1N1CCC(c2nnco2)CC1 [I-N-268, N-(4-(4-(1,3,4-oxadiazol-2-yl)piperidin-1-yl)pyridin-3-yl)-2-amino-6-fluoropyrazolo[1,5-a]pyrimidine-3-carboxamide] | +++ (Compounds with a Cisplatin sensitization value of <0.02 μM are marked with “+++.”) |
| Cc1ncn(-c2ccncc2NC(=O)c2c(N)nn3cc(F)cnc23)c1C [I-N-269, 2-amino-N-(4-(4,5-dimethyl-1H-imidazol-1-yl)pyridin-3-yl)-6-fluoropyrazolo[1,5-a]pyrimidine-3-carboxamide] | ++ (Compounds with a Cisplatin sensitization value >0.02 μM but <0.2 μM are marked with “++.”) |
| Nc1nn2cc(F)cnc2c1C(=O)Nc1cncc(F)c1N1CCCCC1 [I-N-270, 2-amino-6-fluoro-N-(5-fluoro-4-(piperidin-1-yl)pyridin-3-yl)pyrazolo[1,5-a]pyrimidine-3-carboxamide] | +++ (Compounds with a Cisplatin sensitization value of <0.02 μM are marked with “+++.”) |
| Nc1nn2cc(F)cnc2c1C(=O)Nc1cnccc1N1CCC(S(=O)(=O)N2CCC2)CC1 [I-N-271, 2-amino-N-(4-(4-(azetidin-1-ylsulfonyl)piperidin-1-yl)pyridin-3-yl)-6-fluoropyrazolo[1,5-a]pyrimidine-3-carboxamide] | +++ (Compounds with a Cisplatin sensitization value of <0.02 μM are marked with “+++.”) |
| CN1CCOC2(CCN(c3c(F)cncc3NC(=O)c3c(N)nn4cc(F)cnc34)CC2)C1 [I-N-272, 2-amino-6-fluoro-N-(5-fluoro-4-(4-methyl-1-oxa-4,9-diazaspiro[5.5]undecan-9-yl)pyridin-3-yl)pyrazolo[1,5-a]pyrimidine-3-carboxamide] | +++ (Compounds with a Cisplatin sensitization value of <0.02 μM are marked with “+++.”) |
| Nc1nn2cc(F)cnc2c1C(=O)Nc1cncc(F)c1N1CCC(S(=O)(=O)N2CCN3CCC2CC3)CC1 [I-N-273, N-(4-(4-(1,4-diazabicyclo[3.2.2]nonan-4-ylsulfonyl)piperidin-1-yl)-5-fluoropyridin-3-yl)-2-amino-6-fluoropyrazolo[1,5-a]pyrimidine-3-carboxamide] | +++ (Compounds with a Cisplatin sensitization value of <0.02 μM are marked with “+++.”) |
| Nc1nn2cc(F)cnc2c1C(=O)Nc1cncc(F)c1N1CCN(C(=O)C2CCOC2)CC1 (centres unmarked) [I-N-274, 2-amino-6-fluoro-N-(5-fluoro-4-(4-(tetrahydrofuran-3-carbonyl)piperazin-1-yl)pyridin-3-yl)pyrazolo[1,5-a]pyrimidine-3-carboxamide] | +++ (Compounds with a Cisplatin sensitization value of <0.02 μM are marked with “+++.”) |
| CC(=O)N1CCN(c2c(F)cncc2NC(=O)c2c(N)nn3cc(F)cnc23)CC1 [I-N-275, N-(4-(4-acetylpiperazin-1-yl)-5-fluoropyridin-3-yl)-2-amino-6-fluoropyrazolo[1,5-a]pyrimidine-3-carboxamide] | +++ (Compounds with a Cisplatin sensitization value of <0.02 μM are marked with “+++.”) |
| Nc1nn2cc(F)cnc2c1C(=O)Nc1cncc(F)c1N1CCN(C(=O)C2CC2)CC1 [I-N-276, 2-amino-N-(4-(4-(cyclopropanecarbonyl)piperazin-1-yl)-5-fluoropyridin-3-yl)-6-fluoropyrazolo[1,5-a]pyrimidine-3-carboxamide] | +++ (Compounds with a Cisplatin sensitization value of <0.02 μM are marked with “+++.”) |
| Nc1nn2cc(F)cnc2c1C(=O)Nc1cncc(F)c1N1CCN(C(=O)C2COC2)CC1 [I-N-278, 2-amino-6-fluoro-N-(5-fluoro-4-(4-(oxetane-3-carbonyl)piperazin-1-yl)pyridin-3-yl)pyrazolo[1,5-a]pyrimidine-3-carboxamide] | +++ (Compounds with a Cisplatin sensitization value of <0.02 μM are marked with “+++.”) |
| Nc1nn2cc(F)cnc2c1C(=O)Nc1cncc(F)c1N1CCN2C(=O)CCC[C@H]2C1 [I-N-279, (S)-2-amino-6-fluoro-N-(5-fluoro-4-(6-oxohexahydro-1H-pyrido[1,2-a]pyrazin-2(6H)-yl)pyridin-3-yl)pyrazolo[1,5-a]pyrimidine-3-carboxamide] | +++ (Compounds with a Cisplatin sensitization value of <0.02 μM are marked with “+++.”) |
| Nc1nn2cc(F)cnc2c1C(=O)Nc1cncc(Cl)c1N1CCCC1 [I-N-281, 2-amino-N-(5-chloro-4-(pyrrolidin-1-yl)pyridin-3-yl)-6-fluoropyrazolo[1,5-a]pyrimidine-3-carboxamide] | +++ (Compounds with a Cisplatin sensitization value of <0.02 μM are marked with “+++.”) |
| COCC1CCN(c2ccncc2NC(=O)c2c(N)nn3cc(F)cnc23)CC1 [I-N-282, 2-amino-6-fluoro-N-(4-(4-(methoxymethyl)piperidin-1-yl)pyridin-3-yl)pyrazolo[1,5-a]pyrimidine-3-carboxamide] | +++ (Compounds with a Cisplatin sensitization value of <0.02 μM are marked with “+++.”) |
| Cc1cncn1-c1ccncc1NC(=O)c1c(N)nn2cc(F)cnc12 [I-N-283, 2-amino-6-fluoro-N-(4-(5-methyl-1H-imidazol-1-yl)pyridin-3-yl)pyrazolo[1,5-a]pyrimidine-3-carboxamide] | ++ (Compounds with a Cisplatin sensitization value >0.02 μM but <0.2 μM are marked with “++.”) |
| Nc1nn2cc(F)cnc2c1C(=O)Nc1cncc(Cl)c1N1CCC(O)C1 (centres unmarked) [I-N-284, 2-amino-N-(5-chloro-4-(3-hydroxypyrrolidin-1-yl)pyridin-3-yl)-6-fluoropyrazolo[1,5-a]pyrimidine-3-carboxamide] | +++ (Compounds with a Cisplatin sensitization value of <0.02 μM are marked with “+++.”) |

Source: US10787452B2 (Vertex Pharmaceuticals Incorporated, priority 2012, dated 2020)
